{
  "source": "patent US20170165317A1",
  "about": "“METHOD FOR MITIGATING OR ALLEVIATING SYNAPTIC AND COGNITIVE DEFICITS” (Trustees of Dartmouth College, priority 2013, published 2017)",
  "key": {"APP/PS1 mice": {"test_system": "APP/PS1 mice", "assay": "Hippocampal APP, C-terminal fragments, Aβ monomers and SDS-resistant Aβ assemblies after in vivo treatment (western blot, ELISA)", "set-up": "species or system mouse", "details": "after VO-OHpic treatment, end of last behavioural test", "method": "(§1) Hippocampal slices overexpressing Aβ were maintained for 3 days after virus injection with or without the PTEN inhibitor VO-OHpic, before culture medium was collected for measurements. Aβ40 and Aβ42 level were determined in solubilized hippocampal fractions, cultured hippocampal slices or conditioned media by ELISA according to the manufacturer's instructions (WAKO/Invitrogen) that specifically detect the C-terminus of Aβ40 and Aβ42, respectively.\nHippocampi from APP/PS1 mice or their wild-type littermates and organotypic hippocampal slices infected with APPswe/lnd-EGFP/APPwt-EGFP/APPMV-EGFP were solubilized, and extracts were prepared for western blot analysis. Mouse brains or brain sections were homogenized on ice in RIPA buffer (1% TRITON X-100, 1% sodium deoxycholate, 0.1% SDS, 150 mM NaCl, 50 mM Tris-HCl, pH 7.2), using an ULTRATURRAX T25 (Janke & Kunkel). Samples were centrifuged at 15,000×g, and supernatants were used for protein determination. APPsα was detected in conditioned media of the respective slices using antibody 6E10 that selectively detects human APPsα. Levels of APP, CTFα and CTFβ were detected in lysates of the infected slices using APPCt antibody.\nAfter the end of the last test, the levels of APP and its C-terminal fragments (western blot), Aβ monomers (ELISA), and SDS-resistant. Aβ assemblies (SDS-PAE) were measured from the hippocampus of each mouse. […]"}, "Aβ42": {"target": "T1, Aβ42 (Homo sapiens, UniProt P05067)", "T1 construct": "Lyophilized Aβ42 peptide was purchased from Keck Facility at Yale University; purchased Keck Facility at Yale University; host or cells: synthetic peptide", "T1 sequence (P05067 672-713)": "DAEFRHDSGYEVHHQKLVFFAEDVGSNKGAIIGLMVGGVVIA", "assay": "Thioflavin-T fluorescence assay of Aβ42 aggregation", "format": "biochemical", "details": "50 nM VO-OHpic or 15 nM bPV(HOpic), 37° C.", "method": "Freshly prepared Aβ42 was prepared as described for protofibrillar Aβ42. The Thioflavin-T (ThT) assay was carried out at 37° C., within a dark chamber in a 96-well plate. Each well contained 100 ng/μL of Aβ42, 20 μM ThT and 50 nM VO-OHpic or 15 nM bPV(HOpic). Fluorescence (λex=450 nm; λem=485 nm) was followed over time in a FLUOSTAR OPTIMA (BMG LabTech) fluorescence spectrophotometer. Samples were run in triplicates. […] Thus, the observed rescue of basal synaptic transmission, LTP and cognition, with VO-OHpic was not likely due to an altered aggregation state of Aβ upon PTEN inhibition."}, "[1]": {"test_system": "APPswe/lnd-EGFP infected neurons", "assay": "APP expression, APP fragments and Aβ production/secretion in APPswe/lnd-infected slice cultures (ELISA, western blot)", "format": "cell-based, rat", "details": "slice cultures with or without PTEN inhibitor", "method": "as §1\nHippocampi from APP/PS1 mice or their wild-type littermates and organotypic hippocampal slices infected with APPswe/lnd-EGFP/APPwt-EGFP/APPMV-EGFP were solubilized, and extracts were prepared for western blot analysis. […] APPsα was detected in conditioned media of the respective slices using antibody 6E10 that selectively detects human APPsα. Levels of APP, CTFα and CTFβ were detected in lysates of the infected slices using APPCt antibody. […]\nHowever, this form of depression may in principle be due to Aβ exposure, to intracellular fragments derived from APP processing, or a combination thereof. To test the role of PTEN specifically in the effects of neuron-secreted Aβ, synaptic dysfunctions were monitored in untransfected cells neighboring APPswe/lnd-expressing neurons. […]"}},
  "data": [
    {"compound": "O=C(O)c1ncccc1O.O=C(O)c1ncccc1O.[O]=[V][O-]", "note": "[VO-OHpic]", "values": [
      {"measurement": "levels of APP and its C-terminal fragments, Aβ monomers and SDS-resistant Aβ assemblies in hippocampus", "setting": "APP/PS1 mice", "value": "No changes were detected"},
      {"measurement": "Aβ42 aggregation (ThT fluorescence)", "setting": "Aβ42", "value": "does not alter Aβ42 aggregation"},
      {"measurement": "recombinant APP expression, formation of C-terminal APP fragments, Aβ production/secretion", "setting": "[1]", "value": "independent of VO-OHpic treatment"}
    ]}
  ]
}
